{"source": "patent US20240050344A1", "about": "“Methods of Enhancing Natural Defense in the Oral Cavity” (Colgate-Palmolive Company, priority 2021, published 2024)", "key": {"U937": {"tested_on": "U937", "test": "Phagocytosis assay with Latex Beads-Rabbit IgG-FITC, U937 cells", "format": "cell-based", "conditions": "FIG. 6", "excerpt": "(§1) Phagocytosis is a very important physiological process which is characterized by the ingestion of foreign particles and killing of microorganisms by phagocytic leukocytes (monocytes, macrophages, granulocytes). The phagocytic leukocytes are part of a first line of natural defense against potential pathogens. Phagocytotic active of phagocytes can be measured using a phagocytosis assay. The phagocytosis assay uses fluorescently-opsonized latex beads which are contacted with phagocytic cells. After maintaining the beads in contact with the cell, fluorescent reading of cells is used to assess the degree of phagocytosis. Thus, the degree of phagocytosis from cells treated with different compounds can be compared quantifiably.\nEDTA chelates Zinc. Phagocytotic immune cells were contacted with fluorescently-opsonized latex beads in the presence of ZnCl2 and EDTA to determine the effect addition of zinc-chelating EDTA changes the effects of zinc on the phagocytotic activity of phagocytotic immune cells.\n(§2) 96-well plates were seeded with either phagocytic immune cells THP1 (cat #TIB202, ATCC) and U937 (cat #CRL-1593.2, ATCC) at 5×10^4 cells/well in 100 μl of RPMI-1640 medium containing 10 ng/ml phorbol myristic acid (PMA, Sigma) for 48 hr in a CO2 incubator at 37° C.\n(§3) Medium was changed with 100 μl/ml of RPMI-1640 (Item #500290, Cayman). U937 cells were treated with ZnCl2 or ZnCl2 and EDTA. THP1 cells were treated with ZnO or ZnO plus EDTA. 10 μl of the Latex Beads-Rabbit IgG-FITC solution were added to each well. Plates were mixed gently and cells were incubated in a CO2 incubator at 37° C. for 24-48 hrs.\n(§4) After incubation, plates were centrifuged for 5 minutes at 400×g at room temperature. Supernatant was carefully aspirated. 50 μl of Trypan blue solution was added to each well and plates were incubated for 1-2 mins at room temperature. Plates were centrifuged for 5 minutes at 400×g at room temperature. Supernatant was carefully aspirated. Fluorescent intensity was read using in plate reader at excitation 485/emission 535 nm."}, "THP1": {"tested_on": "THP1", "test": "Phagocytosis assay with Latex Beads-Rabbit IgG-FITC, THP1 cells", "format": "cell-based", "conditions": "FIG. 7; for phagocytosis activity: versus EDTA control", "excerpt": "as §1, §2, §3, §4"}}}
{"smiles": "O=C(O)CN(CCN(CC(=O)O)CC(=O)O)CC(=O)O", "note": "[EDTA]", "values": [{"measurement": "phagocytosis activity", "setting": "U937; EDTA alone versus untreated control", "value": "No difference in phagocytosis activity"}]}
{"smiles": "[Cl-].[Cl-].[Zn+2]", "note": "[ZnCl2]", "values": [{"measurement": "phagocytosis activity", "setting": "U937; 12.5 μM, versus untreated control", "value": "more phagocytosis activity than untreated control cells"}, {"measurement": "phagocytosis activity", "setting": "U937; 25 μM, versus untreated control", "value": "more phagocytosis activity than untreated control cells"}]}
{"smiles": "[O]=[Zn]", "note": "[ZnO, zinc oxide]", "values": [{"measurement": "phagocytosis activity, comparison among the tested ZnO amounts", "setting": "THP1; 6.25 μM compared with 12.5 μM and 25 μM", "value": "greatest increase"}, {"measurement": "phagocytosis activity", "setting": "THP1; 6.25 μM", "value": "more phagocytosis activity than EDTA control cells"}, {"measurement": "phagocytosis activity", "setting": "THP1; 12.5 μM", "value": "more phagocytosis activity than EDTA control cells"}, {"measurement": "phagocytosis activity", "setting": "THP1; 25 μM", "value": "more phagocytosis activity than EDTA control cells"}]}
